From article PMC10850145, “Hormonal steroids induce multidrug resistance and stress response genes in Neisseria gonorrhoeae by binding to MtrR” (Nature Communications, 2024)
Where “and” joins values, the source holds several entries; their conditions need not be identical. Equal entries are not always repeated. Where two headings read alike, the source gives them in different places.

Tested on: mtrC-lacZ expression
Type: cell-based, Neisseria gonorrhoeae
Conditions: for mtrC-lacZ β-galactosidase activity, Mean: left block of sheet (mtrCDE); for β-galactosidase activity, Mean: second (right) untitled block of sheet Figure S10 (mtrC)
[1] = strain ΔmtrR + mtrR R176E, 6.25 µM hormone
[2] = strain ΔmtrR + mtrR R176E, 12.5 µM hormone
[3] = strain ΔmtrR + mtrR R176E, 25 µM hormone
[4] = strain ΔmtrR + mtrR R176E, 50 µM hormone
[5] = strain ΔmtrR + mtrR WT, 6.25 µM hormone
[6] = strain ΔmtrR + mtrR WT, 12.5 µM hormone
[7] = strain ΔmtrR + mtrR WT, 25 µM hormone
[8] = strain ΔmtrR + mtrR WT, 50 µM hormone

Structure (SMILES): CC(=O)[C@H]1CC[C@H]2[C@@H]3CCC4=CC(=O)CC[C@]4(C)[C@H]3CC[C@]12C [Progesterone, progesterone]
- β-galactosidase activity, mtrC-lacZ, Mean (strain WT (FA19/pLES94-mtrC), hormone 6.25 µM): 97 Miller units
- β-galactosidase activity, mtrC-lacZ, Mean (strain WT (FA19/pLES94-mtrC), hormone 12.5 µM): 126 Miller units
- β-galactosidase activity, mtrC-lacZ, Mean (strain WT (FA19/pLES94-mtrC), hormone 25 µM): 146 Miller units
- β-galactosidase activity, mtrC-lacZ, Mean (strain WT (FA19/pLES94-mtrC), hormone 50 µM): 139 Miller units
- mtrC-lacZ β-galactosidase activity, Mean (strain WT, 6.25 µM hormone): 108 Miller units
- β-galactosidase activity, Mean (strain WT, 6.25 µM hormone): 36 Miller units
- mtrC-lacZ β-galactosidase activity, Mean (strain WT, 12.5 µM hormone): 144 Miller units
- β-galactosidase activity, Mean (strain WT, 12.5 µM hormone): 47 Miller units
- mtrC-lacZ β-galactosidase activity, Mean (strain WT, 25 µM hormone): 194 Miller units
- β-galactosidase activity, Mean (strain WT, 25 µM hormone): 70 Miller units
- mtrC-lacZ β-galactosidase activity, Mean (strain WT, 50 µM hormone): 222 Miller units
- β-galactosidase activity, Mean (strain WT, 50 µM hormone): 97 Miller units
- activation of mtrC (strain producing MtrR R176E): almost no activation
- β-galactosidase activity, mtrC-lacZ, Mean (strain ΔmtrR (FA19 ∆mtrR/pLES94-mtrC), hormone 6.25 µM): 210 Miller units
- β-galactosidase activity, mtrC-lacZ, Mean (strain ΔmtrR (FA19 ∆mtrR/pLES94-mtrC), hormone 12.5 µM): 191 Miller units
- β-galactosidase activity, mtrC-lacZ, Mean (strain ΔmtrR (FA19 ∆mtrR/pLES94-mtrC), hormone 25 µM): 234 Miller units
- β-galactosidase activity, mtrC-lacZ, Mean (strain ΔmtrR (FA19 ∆mtrR/pLES94-mtrC), hormone 50 µM): 188 Miller units
- β-galactosidase activity, mtrC-lacZ, Mean (strain ΔmtrR + mtrR D171A (pGCC3-mtrR D171A), hormone 6.25 µM): 146 Miller units
- β-galactosidase activity, mtrC-lacZ, Mean (strain ΔmtrR + mtrR D171A (pGCC3-mtrR D171A), hormone 12.5 µM): 142 Miller units
- β-galactosidase activity, mtrC-lacZ, Mean (strain ΔmtrR + mtrR D171A (pGCC3-mtrR D171A), hormone 25 µM): 168 Miller units
- β-galactosidase activity, mtrC-lacZ, Mean (strain ΔmtrR + mtrR D171A (pGCC3-mtrR D171A), hormone 50 µM): 106 Miller units
- mtrC-lacZ β-galactosidase activity, Mean [1]: 217 Miller units
- β-galactosidase activity, Mean [1]: 91 Miller units
- mtrC-lacZ β-galactosidase activity, Mean [2]: 208 Miller units
- β-galactosidase activity, Mean [2]: 92 Miller units
- mtrC-lacZ β-galactosidase activity, Mean [3]: 226 Miller units
- β-galactosidase activity, Mean [3]: 111 Miller units
- mtrC-lacZ β-galactosidase activity, Mean [4]: 231 Miller units
- β-galactosidase activity, Mean [4]: 98 Miller units
- β-galactosidase activity, mtrC-lacZ, Mean (strain ΔmtrR + mtrR WT (pGCC3-mtrR), hormone 6.25 µM): 84 Miller units
- β-galactosidase activity, mtrC-lacZ, Mean (strain ΔmtrR + mtrR WT (pGCC3-mtrR), hormone 12.5 µM): 89 Miller units
- β-galactosidase activity, mtrC-lacZ, Mean (strain ΔmtrR + mtrR WT (pGCC3-mtrR), hormone 25 µM): 113 Miller units
- β-galactosidase activity, mtrC-lacZ, Mean (strain ΔmtrR + mtrR WT (pGCC3-mtrR), hormone 50 µM): 129 Miller units
- mtrC-lacZ β-galactosidase activity, Mean [5]: 95 Miller units
- β-galactosidase activity, Mean [5]: 19 Miller units
- mtrC-lacZ β-galactosidase activity, Mean [6]: 111 Miller units
- β-galactosidase activity, Mean [6]: 24 Miller units
- mtrC-lacZ β-galactosidase activity, Mean [7]: 124 Miller units
- β-galactosidase activity, Mean [7]: 34 Miller units
- mtrC-lacZ β-galactosidase activity, Mean [8]: 160 Miller units
- β-galactosidase activity, Mean [8]: 45 Miller units
- mtrC-lacZ β-galactosidase activity, Mean (strain ΔmtrR, 6.25 µM hormone): 311 Miller units
- β-galactosidase activity, Mean (strain ΔmtrR, 6.25 µM hormone): 126 Miller units
- mtrC-lacZ β-galactosidase activity, Mean (strain ΔmtrR, 12.5 µM hormone): 285 Miller units
- β-galactosidase activity, Mean (strain ΔmtrR, 12.5 µM hormone): 129 Miller units
- mtrC-lacZ β-galactosidase activity, Mean (strain ΔmtrR, 25 µM hormone): 297 Miller units
- β-galactosidase activity, Mean (strain ΔmtrR, 25 µM hormone): 134 Miller units
- mtrC-lacZ β-galactosidase activity, Mean (strain ΔmtrR, 50 µM hormone): 286 Miller units
- β-galactosidase activity, Mean (strain ΔmtrR, 50 µM hormone): 97 Miller units
- β-galactosidase activity, Miller units (single replicate) (ΔmtrR + mtrR WT in trans, 6.25 µM, first data set (c15-c36)): 95 Miller units
- β-galactosidase activity, Miller units (single replicate) (ΔmtrR + mtrR WT in trans, 6.25 µM, second data set (c53-c74)): 19 Miller units and 16 Miller units and 17 Miller units and 23 Miller units
- β-galactosidase activity, Miller units (single replicate) (ΔmtrR + mtrR WT in trans, 12.5 µM, first data set (c15-c36)): 114 Miller units
- β-galactosidase activity, Miller units (single replicate) (ΔmtrR + mtrR WT in trans, 12.5 µM, second data set (c53-c74)): 22 Miller units and 26 Miller units and 24 Miller units
- β-galactosidase activity, Miller units (single replicate) (ΔmtrR + mtrR WT in trans, 25 µM, first data set (c15-c36)): 128 Miller units
- β-galactosidase activity, Miller units (single replicate) (ΔmtrR + mtrR WT in trans, 25 µM, second data set (c53-c74)): 39 Miller units and 34 Miller units and 32 Miller units and 31 Miller units
- β-galactosidase activity, Miller units (single replicate) (ΔmtrR + mtrR WT in trans, 50 µM, first data set (c15-c36)): 194 Miller units
- β-galactosidase activity, Miller units (single replicate) (ΔmtrR + mtrR WT in trans, 50 µM, second data set (c53-c74)): 54 Miller units and 51 Miller units and 38 Miller units and 39 Miller units
- β-galactosidase activity, Miller units (single replicate) (ΔmtrR, 6.25 µM, first data set (c15-c36)): 324 Miller units and 312 Miller units and 315 Miller units and 294 Miller units
- β-galactosidase activity, Miller units (single replicate) (ΔmtrR, 6.25 µM, second data set (c53-c74)): 161 Miller units and 130 Miller units and 118 Miller units and 97 Miller units
- β-galactosidase activity, Miller units (single replicate) (ΔmtrR, 12.5 µM, first data set (c15-c36)): 289 Miller units and 316 Miller units and 292 Miller units and 245 Miller units
- β-galactosidase activity, Miller units (single replicate) (ΔmtrR, 12.5 µM, second data set (c53-c74)): 170 Miller units and 117 Miller units and 123 Miller units and 105 Miller units
- β-galactosidase activity, Miller units (single replicate) (ΔmtrR, 25 µM, first data set (c15-c36)): 397 Miller units and 288 Miller units and 270 Miller units and 234 Miller units
- β-galactosidase activity, Miller units (single replicate) (ΔmtrR, 25 µM, second data set (c53-c74)): 195 Miller units and 111 Miller units and 136 Miller units and 96 Miller units
- β-galactosidase activity, Miller units (single replicate) (ΔmtrR, 50 µM, first data set (c15-c36)): 318 Miller units and 329 Miller units and 263 Miller units and 234 Miller units
- β-galactosidase activity, Miller units (single replicate) (ΔmtrR, 50 µM, second data set (c53-c74)): 134 Miller units and 92 Miller units and 84 Miller units and 79 Miller units
